The results in this text go back to ChEMBL document CHEMBL1759876, “PNA containing isocytidine nucleobase: synthesis and recognition of double helical RNA” (Bioorg Med Chem Lett, 2011).

What all share (format): nucleic-acid assay
Assay [1] relates to Hairpin ribozyme RNA. The experiment in a line: Binding affinity to double helical RNA hairpin HRP1 in sodium acetate buffer at pH 5.5.
In assay [2] the test system is Hairpin ribozyme RNA. The experiment in a line: Binding affinity to double helical RNA hairpin HRP2 in sodium acetate buffer at pH 5.5.
Assay [3] concerns Hairpin ribozyme RNA. The experiment in a line: Binding affinity to double helical RNA hairpin HRP3 in sodium acetate buffer at pH 5.5.
In assay [4] the test system is Hairpin ribozyme RNA. Put plainly: Binding affinity to double helical RNA hairpin HRP4 in sodium acetate buffer at pH 5.5.

On to `Cc1cn(CC(=O)N(CCNC(=O)CN(CCNC(=O)CN(CCNC(=O)CN(CCNC(=O)CN(CCNC(=O)[C@@H](N)CCCCN)C(=O)Cn2ccc(N)nc2=O)C(=O)Cn2cc(C)c(=O)[nH]c2=O)C(=O)Cn2ccc(N)nc2=O)C(=O)Cn2cnc3nc(N)[nH]c(=O)c32)CC(=O)NCCN(CC(N)=O)C(=O)Cn2ccc(N)nc2=O)c(=O)[nH]c1=O`, for which the Ka in the assay on Hairpin ribozyme RNA [1] amounted to 1.5 ×10⁶ /M; in the assay with Hairpin ribozyme RNA [2], 0.4 ×10⁶ /M; with Hairpin ribozyme RNA [3], 0.2 ×10⁶ /M; in the assay with Hairpin ribozyme RNA [4] it was 0.09 ×10⁶ /M.
For `Cc1cn(CC(=O)N(CCNC(=O)CN(CCNC(=O)CN(CCNC(=O)CN(CCNC(=O)CN(CCNC(=O)[C@@H](N)CCCCN)C(=O)Cn2ccc(N)nc2=O)C(=O)Cn2cc(C)c(=O)[nH]c2=O)C(=O)Cn2ccc(N)nc2=O)C(=O)Cn2ccc(N)nc2=O)CC(=O)NCCN(CC(N)=O)C(=O)Cn2ccc(N)nc2=O)c(=O)[nH]c1=O` the same measures were 84 ×10⁶ /M, 0.4 ×10⁶ /M, 0.5 ×10⁶ /M and 0.2 ×10⁶ /M.
For `Cc1cn(CC(=O)N(CCNC(=O)CN(CCNC(=O)CN(CCNC(=O)CN(CCNC(=O)[C@@H](N)CCCCN)C(=O)Cn2ccc(N)nc2=O)C(=O)Cn2cc(C)c(=O)[nH]c2=O)C(=O)Cn2ccc(N)nc2=O)CC(=O)NCCN(CC(=O)NCCN(CC(N)=O)C(=O)Cn2ccc(N)nc2=O)C(=O)Cn2cc(C)c(=O)[nH]c2=O)c(N)nc1=O` the same measures were 0.51 ×10⁶ /M, 0.82 ×10⁶ /M, 1.01 ×10⁶ /M and 0.77 ×10⁶ /M.
For `Cc1cn(CC(=O)N(CCNC(=O)CN(CCNC(=O)CN(CCNC(=O)CN(CCNC(=O)CN(CCNC(=O)[C@@H](N)CCCCN)C(=O)Cn2ccc(N)nc2=O)C(=O)Cn2cc(C)c(=O)[nH]c2=O)C(=O)Cn2ccc(N)nc2=O)C(=O)Cn2cnc3ncnc(N)c32)CC(=O)NCCN(CC(N)=O)C(=O)Cn2ccc(N)nc2=O)c(=O)[nH]c1=O`, in that order: 6 ×10⁶ /M, 1.6 ×10⁶ /M, 0.7 ×10⁶ /M and 0.05 ×10⁶ /M.
For `Cc1cn(CC(=O)N(CCNC(=O)CN(CCNC(=O)CN(CCNC(=O)CN(CCNC(=O)CN(CCNC(=O)[C@@H](N)CCCCN)C(=O)Cn2ccc(N)nc2=O)C(=O)Cn2cc(C)c(=O)[nH]c2=O)C(=O)Cn2ccc(N)nc2=O)C(=O)Cn2cc(C)c(=O)[nH]c2=O)CC(=O)NCCN(CC(N)=O)C(=O)Cn2ccc(N)nc2=O)c(=O)[nH]c1=O`, the Ka in the assay with Hairpin ribozyme RNA [1] came out at 2.7 ×10⁶ /M; in the assay on Hairpin ribozyme RNA [2] it was 47 ×10⁶ /M; in the assay with Hairpin ribozyme RNA [3], 0.5 ×10⁶ /M; in the assay with Hairpin ribozyme RNA [4], 0.02 ×10⁶ /M.
